Experimental data published in patent US20100278934A1, “METHODS AND COMPOSITIONS FOR CONSERVING AND/OR PREPARING AN ORGAN OR TISSUE FOR TRANSPLANT” (Regenerx Biopharmaceuticals Inc., priority 2006, published 2010).

Legend:
[1] = tested on: Human hepatic stellate cells HSC; test: RT-PCR analysis of mRNA expression in human hepatic stellate cells cultured with Tβ4; assay type: cell-based
Description: Human hepatic stellate cells HSC were obtained from a liver cell mixture purchased from ADMET technologies after separation on an OptiPrep® Density Gradient Medium (Sigma). They were cultured until confluent and then plated at a density of 250,000 cells/60-mm dish and cultured in MEM supplemented with 10% bovine fetal serum, 1% non-essential amino acids and antibiotics. The cells were maintained in culture for approximately 48 hours and when semi-confluent they were serum-starved overnight using MEM supplemented with 1% albumin, antibiotics and 1% non-essential amino acids. RNA was extracted with Trizol (Invitrogen) and RT-PCR performed using primers. The expression of GAPDH was used as a control. All the experiments were performed in duplicate.
In many instances, the increase was dose dependent. […] The expression of another marker of HSC differentiation, namely PDGF-β receptor, was inhibited in a dose-dependent manner (75% with 1 μg/ml of Tβ4).

[2] = tested on: Co-cultures of rat HSC and Human hepatocytes; test: Co-cultures of rat HSC and human hepatocytes with Tβ4, hepatocyte count after one week; assay type: cell-based; conditions: greater than 100 ng/ml of Tβ4; one week in culture
Description: Hepatocyte Growth Factor (HGF) is a trophic factor for hepatocytes. […] Co-cultures of rat HSC and Human hepatocytes are prepared. Controls are incubated with the regular hormonally-defined medium used for hepatocytes. Experimental cultures receive greater than 100 ng/ml of Tβ4 in the same culture medium. Cells are harvested after one week using collagenase and trypsin. The hepatocytes are separated from the HSC by low speed centrifugation and the cells counted and used for total RNA extraction. […] The purity of the cell fractions are determined after staining with anti-human albumin antibodies (rat HSC are negative). RNA is used for RT-PCR and the expression of liver specific genes analyzed using human primers. Rat primers are used to determine the degree of contamination of rat HSC.

[3] = HSC cultured for 24 hours with different concentrations of Tβ4, RT-PCR, GAPDH control
[4] = HSC cultured for 24 hours, RT-PCR

## thymosin beta 4 [Tβ4]
[1]; 1 μg/ml of Tβ4, HSC cultured for 24 hours, dose-dependent
  inhibition of expression of PDGF-β receptor: 75%
[1]; 1 mg/ml of Tβ4, HSC cultured for 24 hours
  increase in expression of HGF mRNA: 4 fold
[1]; [3]
  increase in expression of GSK 3β mRNA: 2.5 fold
  increase in expression of α-SMA mRNA: 4 fold
  increase in expression of β-catenin mRNA: 3 fold
[1]; [4]
  Tβ4 concentration giving maximal expression of α-SMA: 1 µg/mL
  Tβ4 concentration giving maximal increase in β-catenin mRNA: 1 ng/mL
[2]
  hepatocyte proliferation / number: proliferate and increase in number
